Laboratory results reported in patent US8846914B2, “Compositions to effect neuronal growth” (Neuralstem, Inc., priority 2003, dated 2014).
Read-outs that look alike come from different tables or passages of the source.

Experiments:
Format in all cases: cell-based
[1] = test system: Differentiating human hippocampal stem cells; assay: Neurogenesis dose-response profile; conditions: for activity at 0.3 µM: @300 nM; for activity at 30 µM: @30000 nM
Protocol: FIG. 4 is a line graph illustrating an example of a neurogenesis dose-response profile of selected compounds. Differentiating human hippocampal stem cells were treated for seven days with varying concentrations of “primary hits”. Subsequently, the cells were fixed, stained with anti-beta tubulin antibody, and positive cells were quantified by Array Scan II. Shown are the number of neurons after each treatment normalized against the no-compound control.
In another in vitro assay, compounds are tested as above at varying concentrations to obtain a dose-response curve and EC50 values (effective concentration of the compound which produces 50% of the maximum possible response for that compound).
Primary dose-response profiles and secondary functional assays are used to further eliminate compounds from the primary screen based on a lack of dose-dependent effect on neurogenesis, indicated by lack of linearity of dose-response, and in vitro neurotoxicity. The dose-response curve measures neurogenesis over a concentration range of 100 pM to 100 μM. […] Table II contains the summary of EC50 of each compound tested.

[2] = test system: Differentiating hippocampal human stem cells; assay: Long-term treatment in vitro neurogenesis; conditions: for activity at 10 µM: Homo sapiens, 504 h, three weeks, 5× with 10 μM, compared to the control
Protocol: FIG. 11 is a bar graph illustrating an example of in vitro neurogenesis profile of the compounds for a long-term treatment. Differentiating hippocampal human stem cells mere treated with vehicle alone or with the test compounds for three weeks. Increase in cell number was determined compared to the control. Shown are several examples that are effective in continued neurogenesis. Bars represent mean+/−SD from six wells.
In another in vitro assay, compounds of the fused imidazole, iminopyrimidine, nicotinamide, aminomethyl phenoxypiperidine and aryloxypiperidine types are evaluated for their effect on the differentiation of the culture-born cells to mature neurons. More particularly, multipotent human hippocampal stem cells are treated in three doses over a one-week period in N2b media and in the presence of an agent of the type mentioned above. The cells are then fed twice weekly for approximately two more weeks in N2b or Neuralbasal+B27 Media (Gibco) and then cells are fixed using 4% paraformaldehyde. Cells are washed 3× with PBS (pH 7.4) and then stained using a nuclear stain (Hoechst or DAPI) and a mature neuronal marker, MAP-2ab (AP-20) antibody. A secondary antibody, Alexa Fluor 488 labeled goat anti-mouse IgG, is used to identify by fluorescent labeling the mature neurons. The fluorescent intensity and number of cells labeled in a multi-plate format can be measured using for instance a Array Scan II (Cellomics) or similar instrumentation.
Effects of the long-term NSI compound treatment on human hippocampal stem cells in the absence of mitogen is illustrated in FIG. 11. In FIG. 11, differentiating hippocampal human stem cells are treated with vehicle alone or with the test compounds for three weeks. Increase in cell number was determined compared to the control. Bars represent mean+/−SD from six wells. […] Several examples of NSI compounds are shown to be effective in continued neurogenesis. […] These agents comprise a class of compounds, aminopyrimidines, that, as shown previously, inhibited apoptosis. Accordingly, the aminopyrimidine class of compounds appear ideally suited for neurodegenerative long-term diseases including Alzheimer's disease and aging. Neurogenic agents that are neuroprotective like the sixteen compounds identified above might also be effective therapeutics for other neurodegenerative diseases in mammals including, but not limited to, stroke, traumatic brain injury, Parkinson's disease, and mild cognitive impairment.

[3] = test system: human hippocampal stem cells; assay: Neurogenesis, TuJ1 immunostaining / Hoechst (primary screen); conditions: seven days of compound treatment; for Neuron Number (% of Control): TuJ1+ neurons per area; for Neuron Ratio (% of Control): ratio neuron:total cells (TuJ1/Hoechst)
Description: FIG. 2 is a bar graph illustrating an example of a neurogenesis profile of compounds selected from primary screening. After seven days of compound treatment, the cells were stained with the neuron-specific anti-tubulin IIIb antibody. TuJ1, for neurons and Hoechst for all cell nuclei. Shown are the relative ratio of neuron: total cells for each compound over the vehicle control in percentage. Typical ratio for vehicle control is 40-50% neurons. The ratio can change by either increased differentiation of stem cells to neurons, decreased proliferation of astrocytes, or increased proliferation of neuronal progenitors.
FIG. 3 is a bar graph illustrating an example of a neurogenesis profile of compounds selected from primary screening. After seven days of compound treatment, the cells were stained with TuJ1 for neurons. The number of TuJ1+ neurons per area was quantified and expressed as a relative value to the vehicle treated control.
The final neuron number is detected by immunostaining of the culture with antibodies against neurons and is quantified by counting of the immunopositive neurons and/or by measuring the staining intensity. Therefore, after seven days of compound treatment, the cells are stained with the neuron-specific anti-tubulin IIIb antibody, TuJ1, for neurons and Hoechst for all cell nuclei. The number of TuJ1+ neurons per area is quantified and expressed as a value relative to the vehicle-treated control of Hoechst-stained cells. In this regard, the medium is removed from the wells by decanting and blotting the plates on paper towels. The cells are then fixed in 100 μl of 4% paraformaldehyde per well for thirty minutes at room temperature. The cells are washed three times with 400 μl per well of phosphate-buffered saline (PBS) at pH 7.5 for approximately ten minutes per wash. The plates are then stored at 4° C. in PBS or used immediately for staining.
The cells are subsequently stained with antibodies against neuron-specific antigens according to standard procedures. The staining process includes decanting the PBS and blocking the cells with 100 μl of 5% Normal Goat Serum (NGS) in PBS for one hour at room temperature. The NGS/PBS is decanted and the plates are blotted on a paper towel. The cells are then permeabilized with 0.1% Triton X-100 in PBS for 30 minutes at room temperature.
Typical neuron-specific antigens include Type III-beta tubulin and MAP-2c. The total cell number in each well was quantified by staining the cultures with a nuclear dye such as DAPI or Hoechst according to standard procedures. Therefore, once the cells are permeabilized, 20 μl of TuJ1, monoclonal antibody against neuronal class 111 β-tubulin (CoVance (BabCo) MMS-435P) and 32 μl of anti-GFAP polyclonal (DAKO Z0334) are added to and mixed of PBS with 5% NGS. Final dilutions of TuJ1 and anti-GFAP are 1:400 and 1:250, respectively. 90 μl of the antibody solution is added to each well except two eleventh column. 90 μl of PBS/5% NGS is added to the eleventh column and no cells are added to the twelfth column. The plate(s) are sealed with parafilm and incubated at 4° C. overnight.
After incubating the cells overnight, the antibody solution is decanted and 200 μl of PBS/0.1% Triton X-100 is added to the wells. The plate(s) are placed on a shaker and incubated at room temperature with gentle shaking for ten minutes. The cells are again washed with the PBS/Triton X-100 solution another two times.
Following staining with TuJ1 and anti-GFAP, 20 μl of Alexa Fluor 488 labeled goat anti-moose IgG (H+L) (Molecular Probes A-11001) and 100 μl of LRSC-IgG, goat anti-rabbit (Jackson Immune 111-295-144) is added and mixed with 10 ml of PBS/5% NGS. 100 μl of the resulting antibody solution is added to each well. The plate(s) are covered with foil and incubated with gentle shaking for up to one hour at room temperature. The cells are again washed as described above with PBS and an Triton X-100. […]

[4] = Homo sapiens, Neuron, 168 h, normalized against no-compound control, read-out: Neuron# Eff
[5] = Homo sapiens, Neuron, 168 h, seven days, 100 pM to 100 μM
[6] = read-out: Long Term Treatment #Neur
[7] = read-out: Long Term Treatment Neur Ratio
[8] = read-out: Long Term Treatment Prolif
[9] = Homo sapiens, Neuron, 168 h, read-out: % Neuron Ratio Eff

Row | EC50 [1, 5] | Compound | activity at 0.001 µM ([1]; Homo sapiens, Neuron, 168 h, @1 nM, read-out: % Neuron Ratio Eff) | activity at 0.3 µM [1, 4] | % Neuron Ratio EC50 ([1]; seven days, 100 pM to 100 μM) | activity at 10 µM [2, 6] | activity at 10 µM [2, 7] | activity at 10 µM [2, 8] | Neuron Number (% of Control) [3] | Neuron Ratio (% of Control) [3] | activity at 0.1 µM ([1]; Homo sapiens, Neuron, 168 h, @100 nM, read-out: % Neuron Ratio Eff) | activity at 30 µM [1, 4] | activity at 30 µM [1, 9] | activity at 0.3 µM [1, 9] | Further increase in neuron numbers over long-term treatment ([2]; FIG. 11, compared to one week of treatment)
1 | 0.05 nM | O=C(COc1ccccc1)NCc1nc2ccccn2c1NCC1CCCO1 (stereo not shown) [NSI-183] | 112% | 140% | No Curve | 148 ± 30% | 111 ± 16% | 99 ± 19% | 128 ± 13 % of Control | 131 ± 4 % of Control | – | – | – | – | –
2 | 0.07 nM | CCCCNc1c(C2CCN(C(=O)CN(CC(C)C)S(C)(=O)=O)CC2)nc2cnccn12 [NSI-106] | – | 157% | – | 137 ± 8% | 120 ± 5% | 92 ± 3% | 77 ± 12 % of Control | 92 ± 6 % of Control | 165% | – | – | – | –
3 | 0.001 nM | O=C(c1cccnc1N1CCNCC1)N1CCN(Cc2ccncc2)CC1 [NSI-142] | – | – | – | 146 ± 34% | 120 ± 21% | 105 ± 26% | 152 ± 22 % of Control | 125 ± 15 % of Control | – | 175% | 123% | – | –
4 | 13.5 nM | NC(=O)c1cnc(NCc2ccc(Cl)cc2)nc1NCC1CCCCC1 [NSI-144] | – | 186% | – | 170 ± 46% | 123 ± 12% | 97 ± 21% | 179 ± 29 % of Control | 137 ± 8 % of Control | – | – | – | 138% | effective in stimulating further increases in neuron numbers
